Results published in ChEMBL document CHEMBL2074030, “The systemic exposure of an N-methyl-D-aspartate receptor antagonist is limited in mice by the P-glycoprotein and breast cancer resistance protein efflux transporters” (Drug Metab Dispos, 2004).

Biological target: ATP-dependent translocase ABCB1 (Mus musculus, UniProt P21447)
Experiment: TP_TRANSPORTER: transepithelial transport (apical to basal) in Mdr1a-expressing LLC-PK1 cells
Assay type: functional, cell-based
Details: pig

Sequence of ATP-dependent translocase ABCB1 (P21447 whole entry): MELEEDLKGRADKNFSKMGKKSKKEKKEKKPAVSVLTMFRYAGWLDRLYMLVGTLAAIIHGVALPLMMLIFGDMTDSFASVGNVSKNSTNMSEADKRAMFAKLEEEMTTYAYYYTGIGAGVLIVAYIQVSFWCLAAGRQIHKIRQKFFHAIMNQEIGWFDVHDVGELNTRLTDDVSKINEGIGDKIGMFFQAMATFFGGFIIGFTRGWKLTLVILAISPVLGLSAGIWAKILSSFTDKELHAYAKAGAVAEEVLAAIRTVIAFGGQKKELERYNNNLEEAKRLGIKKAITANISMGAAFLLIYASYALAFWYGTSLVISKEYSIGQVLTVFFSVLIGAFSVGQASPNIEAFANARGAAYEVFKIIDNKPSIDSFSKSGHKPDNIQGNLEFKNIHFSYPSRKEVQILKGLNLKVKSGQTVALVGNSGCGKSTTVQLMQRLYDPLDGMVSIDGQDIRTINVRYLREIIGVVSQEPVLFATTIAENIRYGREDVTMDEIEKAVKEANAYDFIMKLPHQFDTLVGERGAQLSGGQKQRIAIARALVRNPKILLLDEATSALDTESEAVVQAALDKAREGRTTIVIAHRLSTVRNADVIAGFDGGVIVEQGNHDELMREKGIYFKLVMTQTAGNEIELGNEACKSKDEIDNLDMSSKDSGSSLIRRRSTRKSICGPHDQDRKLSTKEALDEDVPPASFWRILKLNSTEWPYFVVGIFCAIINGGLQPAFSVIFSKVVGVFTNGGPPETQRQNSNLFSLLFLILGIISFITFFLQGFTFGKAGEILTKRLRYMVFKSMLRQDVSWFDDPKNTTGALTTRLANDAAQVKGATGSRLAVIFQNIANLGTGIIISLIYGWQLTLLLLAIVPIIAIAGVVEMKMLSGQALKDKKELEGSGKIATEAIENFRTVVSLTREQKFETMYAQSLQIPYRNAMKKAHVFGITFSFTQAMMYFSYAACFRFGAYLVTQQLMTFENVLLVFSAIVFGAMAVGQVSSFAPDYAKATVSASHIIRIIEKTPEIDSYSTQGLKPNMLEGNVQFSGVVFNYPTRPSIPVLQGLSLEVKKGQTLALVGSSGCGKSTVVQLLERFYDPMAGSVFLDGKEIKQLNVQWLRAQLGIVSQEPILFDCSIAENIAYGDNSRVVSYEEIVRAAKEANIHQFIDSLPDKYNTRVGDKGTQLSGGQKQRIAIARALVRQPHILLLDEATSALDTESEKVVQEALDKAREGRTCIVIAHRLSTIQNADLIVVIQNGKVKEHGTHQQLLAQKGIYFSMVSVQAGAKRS

Row | Activity | Structure (SMILES)
1 | is not a substrate [-] | O=C(O)c1[nH]c2cc(Cl)cc(Cl)c2c1/C=C1\CCN(c2ccccc2)C1=O
2 | substrate [+] | CC(C)CN(C[C@@H](O)[C@H](Cc1ccccc1)NC(=O)O[C@H]1CCOC1)S(=O)(=O)c1ccc(N)cc1 [AMPRENAVIR]
